Measurements as given in US6590140B1, “Metal-regulated transporters and uses therefor” (Trustees of Dartmouth College, priority 1996, dated 2003).
“And” between values parts separate entries of the source, which are not always exact repeats. Identical values can stand only once.

Experiments:
zrt1 mutant (ZHY1) cells = type: cell-based, Saccharomyces cerevisiae; settings: for effect on zrt1 growth in LIM: 500 μM metal added to iron-limiting medium LIM (1 mM EDTA)
Procedure: Strains used were DY1457 (MATα ade6 can1 his3 leu2 trp1 ura3) and ZHY1 (MaTα ade6 can1 his3 leu2 trp1 ura3 zrt1:: LEU2). Yeast were grown in standard culture media (SD, YPD) (Eide, D., Davis-Kaplan S., Jordan, I., Sipe, D., and Kaplan, J. (199: 2) J. Biol. Chem. 267, 20774-20781) supplemented with necessary auxotrophic requirements and either 2% glucose or 2% galactose. A zinc-limiting medium (LZM) was prepared in the same manner as LIM (Eide and Guarenete (1992) J. Gen. Microbiol. 138:347-354) except that […]. Cell number in liquid cultures was determined by measuring the optical density of cell suspensions at 600 nm (A600) and converting to cell number with a standard curve.
(§1) Strains used were DY1457 (MATα ade6 can1 his3 leu2 trp1 ura3), ZHY1 (AMTα ade6 can1 his3 leu2 trp1 ura3 zrt1::LEU2), ZHY2 (MATα ade6 can1 his3 leu2 trp1 ura3 zrt2::HIS3), and ZHY3 (MATα ade6 can1 his3 leu2 trp1 ura3 zrt1::LEU2 zrt2::HIS3). Yeast were grown in YP or SD media (Sherman et al. (1986) Methods in Yeast Genetics, Cold Spring Harbor Laboratory, Cold Spring Harbor, N.Y.) supplemented with necessary auxotrophic requirements and either 2% glucose or 2% galactose. Zinc-limiting YP and SD agar plates contained either bathophenanthroline disulfonate (BPS, 200 μM) or EDTA (1 mM), respectively. A liquid zinc-limiting medium (low zinc medium, LZM) was prepared in the same manner as low iron medium (LIM) (Eide and Guarente (1992) J. Gen. Microbiol. 138:347-354) except that the […]. LZM is similar in composition to SD medium with two modifications essential to controlling zinc availability. First, 1 mM EDTA is added to provide buffering for the concentration of free metal ions. Second, the medium is pH-buffered at 4.2 with 20 mM citrate to prevent pH changes that could alter the metal binding ability of EDTA. LZM was also prepared without EDTA ([…]) which is less zinc-limiting because the predominant chelator in this medium, citrate, binds zinc with less affinity than does EDTA. The concentrations of free (i.e. unchelated) zinc were calculated using MAXCHELATOR software (Chris Patton, Stanford University). Cell number in liquid cultures was determined by measuring the absorbance of cell suspensions at 600 nm (OD600) and converting to cell number with a standard curve.
To examine the function of ZRT1, a disruption mutation, zrt1::LEU2, was constructed by inserting the LEU2 gene into the center of ZRT1 (FIG. 6). This zrt1 disruption allele was then introduced into a haploid yeast strain. […] Because of the high EDTA concentration in LIM (1 mM), this medium is expected to have low available levels of other metals that are bound tightly by this chelator. Supplements of other metals were tested for improved growth of the zrt1 mutant in LIM. […] To study this effect further, a low zinc medium, LZM, was developed in which cell growth could be limited by zinc deficiency and the growth response of the wild type and zrt1 mutant strains to increasing levels of supplemented zinc was examined. Wild type (DY1457, squares) and zrt1 mutant (ZHY1, circles) cells were inoculated into LZM supplemented with the indicated amount of ZnSO4 and grown for 16 hours prior to cell number determination. […] Mutant zrt1 cells attained this same maximum number of cell divisions only with zinc supplements of 750 μM or more, i.e. a 75-fold increase in the zinc requirement of the zrt1 mutant compared to the wild type.
To further assess the role of the low affinity system as a source of zinc, growth of wild type and zrt2 cells in a zinc-limiting medium, LZM, supplemented with increasing amounts of zinc was examined. The same strains as in FIG. 15 were grown for six hours in SD glucose medium, harvested, washed in LZM, and reinoculated into either LZM (FIG. 15A) or LZM-EDTA (FIG. 15B) supplemented with the indicated concentrations of ZnCl2 ([Zn]T). […]

zrt1zrt2 (ZHY3) cells = assay: Zinc-limited growth, zrt1zrt2 mutant yeast; type: cell-based, Saccharomyces cerevisiae
Procedure: as §1
To further assess the role of the low affinity system as a source of zinc, growth of wild type and zrt2 cells in a zinc-limiting medium, LZM, supplemented with increasing amounts of zinc was examined. The same strains as in FIG. 15 were grown for six hours in SD glucose medium, harvested, washed in LZM, and reinoculated into either LZM (FIG. 15A) or LZM-EDTA (FIG. 15B) supplemented with the indicated concentrations of ZnCl2 ([Zn]T). These cultures were then grown for 16 hours at 30° C. prior to cell number determination. Number of cell divisions are plotted against [Zn]T and the calculated free zinc concentration ([Zn]F). The metal ion buffering capacity of EDTA in LZM is exceeded at concentrations above 100 μM total zinc whereas the metal buffering capacity of citrate in LZM-EDTA maintains a linear relationship between [Zn]T and [Zn]F to concentrations greater than 1 mM. It has been shown previously that the zrt1 mutant requires greater than 500 μM total zinc ([Zn]T) in LZM to undergo its maximum number of cell divisions and this value corresponds to a calculated free (i.e. unchelated) zinc concentration ([Zn]F) of approximately 500 μM. […]

For `[Cl-].[Cl-].[Co+2]` [Co], the “effect on zrt1 growth in LIM” value (zrt1 mutant (ZHY1) cells) was “no effect”.
`[Cl][Cu][Cl]` [Cu] was tested, and the “effect on zrt1 growth in LIM” value (zrt1 mutant (ZHY1) cells) was “no effect”.
With `[Cl][Mn][Cl]` [Mn] the “effect on zrt1 growth in LIM” value (zrt1 mutant (ZHY1) cells) was “no effect”.
For `[Zn+2]` [zinc], the “effect on zrt1 growth in LIM” value (zrt1 mutant (ZHY1) cells) was “greatly enhanced growth”, the “increase in zinc requirement of zrt1 mutant compared to wild type” value (zrt1 mutant (ZHY1) cells; growth in zinc-limiting medium) was 75 fold and 100 fold and the “total zinc required for maximum number of cell divisions” value (zrt1 mutant (ZHY1) cells; zrt1, LZM) was “approximately 500 μM”. The “total zinc for maximum number of divisions” value (zrt1 mutant (ZHY1) cells; zrt1, LZM-EDTA (LZM without EDTA), 16 hours) was 0.5 µM, the “calculated free zinc [Zn]F for maximum number of divisions” value (zrt1 mutant (ZHY1) cells; zrt1, LZM-EDTA, 16 hours) was ~6 nM and the “growth rate versus untreated culture” value (zrt1 mutant (ZHY1) cells; zrt1 cells, SD glucose supplemented with 2 mM ZnCl2) was “No difference in growth rate”. For the same compound, the “calculated free zinc [Zn]F for maximum number of divisions” value (zrt1zrt2 (ZHY3) cells; zrt1zrt2, LZM-EDTA, 16 hours) was ~6 µM, the “total zinc for maximum number of divisions” value (zrt1zrt2 (ZHY3) cells; zrt1zrt2, LZM-EDTA, 16 hours) was 500 µM and the “zinc required in the medium relative to the wild type strain” value (zrt1zrt2 (ZHY3) cells; zrt1zrt2 vs wild type) was “greater than 10^5 fold”. For the same compound, the “zinc required for growth relative to the zrt1 strain” value (zrt1zrt2 (ZHY3) cells; zrt1zrt2 vs zrt1) was “at least 1000 fold”.
